Measured values taken from patent US6727232B2, “Nucleoside peptide antibiotics of AA-896” (Wyeth Holdings Corporation, priority 2001, dated 2004).
In brackets after ≈: the same amount, converted by molar mass.

Key:
Assay in all cases: Broth dilution MIC
Format in all cases: cell-based
CNS GC 4537 = settings: CNS GC 4537; Mueller-Hinton broth, 18 hours at 35° C.; read-out: Antimicrobial Activity (MIC)
Summary of the method: (§1)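 MIC reported as the lowest compound concentration preventing growth after 18 hours of incubation at 35° C., using serial dilutions in Mueller-Hinton broth inoculated with the test strain.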

CNS GC 4538 = settings: CNS GC 4538; Mueller-Hinton broth, 18 hours at 35° C.; read-out: Antimicrobial Activity (MIC)
Summary of the method: as §1

CNS GC 4547 = settings: CNS GC 4547; Mueller-Hinton broth, 18 hours at 35° C.; read-out: Antimicrobial Activity (MIC)
Summary of the method: as §1

E. cloacae GC 3783 = settings: Enterobacter cloacae, GC3783; E. cloacae GC 3783; Mueller-Hinton broth, 18 hours at 35° C.; read-out: Antimicrobial Activity (MIC)
Summary of the method: as §1

E. coli GC 2203 = settings: Escherichia coli, GC2203; E. coli GC 2203; Mueller-Hinton broth, 18 hours at 35° C.; read-out: Antimicrobial Activity (MIC)
Summary of the method: as §1

E. coli GC 3226 = settings: Escherichia coli, GC3226; E. coli GC 3226; Mueller-Hinton broth, 18 hours at 35° C.; read-out: Antimicrobial Activity (MIC)
Summary of the method: as §1

E. coli GC 4559 = settings: Escherichia coli, GC4559; E. coli GC 4559; Mueller-Hinton broth, 18 hours at 35° C.; read-out: Antimicrobial Activity (MIC)
Summary of the method: as §1

E. coli GC 4560 = settings: Escherichia coli, GC4560, 18 h, read-out: Antimicrobial Activity (MIC)
Summary of the method: as §1

E. faecalis GC 2242 = settings: Enterococcus faecalis, GC2242; E. faecalis GC 2242; Mueller-Hinton broth, 18 hours at 35° C.; read-out: Antimicrobial Activity (MIC)
Summary of the method: as §1

E. faecalis GC 4555 = settings: Enterococcus faecalis, GC4555; E. faecalis GC 4555; Mueller-Hinton broth, 18 hours at 35° C.; read-out: Antimicrobial Activity (MIC)
Summary of the method: as §1

E. faecalis GC 842 = settings: Enterococcus faecalis, GC842; E. faecalis GC 842; Mueller-Hinton broth, 18 hours at 35° C.; read-out: Antimicrobial Activity (MIC)
Summary of the method: as §1

K. pneumoniae GC 4534 = settings: Klebsiella pneumoniae, GC4534; K. pneumoniae GC 4534; Mueller-Hinton broth, 18 hours at 35° C.; read-out: Antimicrobial Activity (MIC)
Summary of the method: as §1

M. morganii GC 4531 = settings: Morganella morganii, GC4531; M. morganii GC 4531; Mueller-Hinton broth, 18 hours at 35° C.; read-out: Antimicrobial Activity (MIC)
Summary of the method: as §1

P. aeruginosa GC 2214 = settings: Pseudomonas aeruginosa, GC2214; P. aeruginosa GC 2214; Mueller-Hinton broth, 18 hours at 35° C.; read-out: Antimicrobial Activity (MIC)
Summary of the method: as §1

P. aeruginosa GC 4532 = settings: Pseudomonas aeruginosa, GC4532; P. aeruginosa GC 4532; Mueller-Hinton broth, 18 hours at 35° C.; read-out: Antimicrobial Activity (MIC)
Summary of the method: as §1

P. rettgeri GC 4530 = settings: Providencia rettgeri, GC4530; P. rettgeri GC 4530; Mueller-Hinton broth, 18 hours at 35° C.; read-out: Antimicrobial Activity (MIC)
Summary of the method: as §1

S. aureus GC 1131 = settings: Staphylococcus aureus, GC1131; S. aureus GC 1131; Mueller-Hinton broth, 18 hours at 35° C.; read-out: Antimicrobial Activity (MIC)
Summary of the method: as §1

S. aureus GC 2216 = settings: Staphylococcus aureus, GC2216; S. aureus GC 2216; Mueller-Hinton broth, 18 hours at 35° C.; read-out: Antimicrobial Activity (MIC)
Summary of the method: as §1

S. aureus GC 4536 = settings: Staphylococcus aureus, GC4536; S. aureus GC 4536; Mueller-Hinton broth, 18 hours at 35° C.; read-out: Antimicrobial Activity (MIC)
Summary of the method: as §1

S. marcescens GC 4077 = settings: Serratia marcescens, GC4077; S. marcescens GC 4077; Mueller-Hinton broth, 18 hours at 35° C.; read-out: Antimicrobial Activity (MIC)
Summary of the method: as §1

Row | SMILES | MIC (CNS GC 4537) [µg/mL] | MIC (CNS GC 4538) [µg/mL] | MIC (CNS GC 4547) [µg/mL] | MIC (E. cloacae GC 3783) [µg/mL] | MIC (E. coli GC 2203) [µg/mL] | MIC (E. coli GC 3226) [µg/mL] | MIC (E. coli GC 4559) [µg/mL] | MIC (E. coli GC 4560) [µg/mL] | MIC (E. faecalis GC 2242) [µg/mL] | MIC (E. faecalis GC 4555) [µg/mL] | MIC (E. faecalis GC 842) [µg/mL] | MIC (K. pneumoniae GC 4534) [µg/mL] | MIC (M. morganii GC 4531) [µg/mL] | MIC (P. aeruginosa GC 2214) [µg/mL] | MIC (P. aeruginosa GC 4532) [µg/mL] | MIC (P. rettgeri GC 4530) [µg/mL] | MIC (S. aureus GC 1131) [µg/mL] | MIC (S. aureus GC 2216) [µg/mL] | MIC (S. aureus GC 4536) [µg/mL] | MIC (S. marcescens GC 4077) [µg/mL]
1 | CO[C@H]1C(O[C@H](C(C(=O)O)N(CCCNC(=O)C(NC(=O)C(NC(=O)NC(C(=O)O)C(C)C)C2CCNC(=N)N2)C(O)C(C)C)Cc2ccc(-c3ccccc3)cc2)[C@H]2O[C@@H](n3ccc(=O)[nH]c3=O)[C@H](O)[C@@H]2O)O[C@H](CNCc2ccc(-c3ccccc3)cc2)[C@@H]1O (stereo partly drawn) [Example 19B, 15-([1,1′-Biphenyl]-4-ylmethyl)-16-((R)-[((3R,4S,5R)-5-{[([1,1′-biphenyl]-4-ylmethyl)amino]methyl}-4-hydroxy-3-methoxytetrahydro-2-furanyl)oxy]{(2S,3S,4R,5R)-5-[2,4-dioxo-3,4-dihydro-1 (2H)-pyrimidinyl]-3,4-dihydroxytetrahydro-2-furanyl}methyl)-9-(1-hydroxy-2-methylpropyl)-6-(2-iminohexahydro-4-pyrimidinyl)-2-isopropyl-4,7,10-trioxo-3,5,8,11,15-pentaazaheptadecane-1,17-dioic Acid] | > 32 | > 32 | > 32 | > 32 | > 32 | > 32 | > 32 | > 32 | > 32 | > 32 | > 32 | > 32 | > 32 | > 32 | > 32 | > 32 | > 32 | > 32 | > 32 | > 32
2 | CO[C@H]1C(O[C@H](C(NCCCNC(=O)C(NC(=O)C(NC(=O)NC(C(=O)O)C(C)C)C2CCNC(=N)N2)C(O)C(C)C)C(=O)O)[C@H]2O[C@@H](n3ccc(=O)[nH]c3=O)[C@H](O)[C@@H]2O)O[C@H](CNCc2ccccc2)[C@@H]1O (stereo partly drawn) [Example 20A, 16-((R)-({(3R,4S,5R)-5-[(Benzylamino)methyl]-4-hydroxy-3-methoxytetrahydro-2-furanyl}oxy){(2S,3S,4R,5R)-5-[2,4-dioxo-3,4-dihydro-1 (2H)-pyrimidinyl]-3,4-dihydroxytetrahydro-2-furanyl}methyl)-9-(1-hydroxy-2-methylpropyl)-6-(2-iminohexahydro-4-pyrimidinyl)-2-isopropyl-4,7,10-trioxo-3,5,8,11,15-pentaazaheptadecane-1,17-dioic acid] | > 32 | > 32 | > 32 | > 32 | > 32 | > 32 | > 32 | > 32 | > 32 | > 32 | > 32 | > 32 | > 32 | > 32 | > 32 | > 32 | > 32 | > 32 | > 32 | > 32
3 | CO[C@H]1C(O[C@H](C(C(=O)O)N(CCCNC(=O)C(NC(=O)C(NC(=O)NC(C(=O)O)C(C)C)C2CCNC(=N)N2)C(O)C(C)C)Cc2ccccc2)[C@H]2O[C@@H](n3ccc(=O)[nH]c3=O)[C@H](O)[C@@H]2O)O[C@H](CNCc2ccccc2)[C@@H]1O (stereo partly drawn) [Example 20B, 15-Benzyl-16-((R)-({(3R,4S,5R)-5-[(benzylamino)methyl]-4-hydroxy-3-methoxytetrahydro-2-furanyl}oxy){(2S,3S,4R,5R)-5-[2,4-dioxo-3,4-dihydro-1 (2H)-pyrimidinyl]-3,4-dihydroxytetrahydro-2-furanyl}methyl)-9-(1-hydroxy-2-methylpropyl)-6-(2-iminohexahydro-4-pyrimidinyl)-2-isopropyl-4,7,10-trioxo-3,5,8,11,15-pentaazaheptadecane-1,17-dioic Acid] | > 32 | > 32 | > 32 | > 32 | > 32 | > 32 | > 32 | 32 (≈ 28.4 µM) | > 32 | > 32 | > 32 | > 32 | > 32 | > 32 | > 32 | > 32 | > 32 | > 32 | > 32 | > 32
